How the values were obtained:
[1] = tested on: human subjects diagnosed with, or suffering from CF; experiment: Example 1: open-label Phase 2 CF study, 160 ppm NO 30 min 3x daily, 5 days/week, 2 weeks; safety monitoring; format: in vivo
Protocol: (§1) NO was administered via inhalation to nine clinically stable human subjects diagnosed with, or suffering from CF from two medical centers. Patients received three daily 30-minute treatments of 160 ppm NO with at least 3.5 hours between treatments, for 5 days per week over a two-weeks time period.
Safety parameters, including NO and nitrogen dioxide (NO2 via NO2^−/NO3^−) concentrations, inhaled fraction of inspired oxygen (FiO2), methemoglobin level (SpMet, or “% MetHb”), and oxyhemoglobin (oxygen) saturation (SpO2 or SaO2), were continuously monitored using a noninvasive pulse-oximetry device RAD-57™ or RAD-87™ by Masimo Irvine, Calif. These devices also monitor Perfusion Index (PI), Respiration Rate (RRa), Total Hemoglobin (SpHb), Carboxyhemoglobin (SpCO), Oxygen Content (SpOC) and Pleth Variability Index (PVI®). Vital signs, including blood pressure, pulse, and respiratory rate were also closely monitored.

[2] = tested on: human subjects diagnosed with, or suffering from CF; experiment: Example 1: FEV1 in CF subjects treated with 160 ppm NO; format: in vivo
Protocol: as §1
Preliminary efficacy measures included determination of microbial density in sputum and measurements of forced exhaled volume at 1 second (FEV1). Inflammation associated with C-reactive protein (CRP) levels was assessed as a secondary outcome measure. Other inflammation biomarkers, such as interleukins, were also monitored (data not shown).

[3] = tested on: S. aureus (MSSA); experiment: Example 4: bacterial and fungal sputum load; format: in vivo, Staphylococcus aureus
Protocol: (§2) In addition to their standard care, subjects were administered three 30-minute inhalations per day of 160 ppm NO (with O2/air) for 10 working days (i.e., 5 days on treatment, 2 days off treatment, 5 days on treatment, for a total of 10 treatment days and 30 inhalations).
(§3) Secondary Endpoints—Efficacy: • Comparison of FEV1 improvement before and after NO treatment Observational Endpoints: • To determine the reduction in bacterial and fungal sputum load during each week of NO treatment compared to bacterial sputum load before NO treatment • Assess the improvement of lung function indices during and after NO intermittent inhalation treatment as determined by spirometry (i.e., FVC, FEV1, FEV1/FVC, forced expiratory flow 25% to 75% (FEF 25-75)) • Evaluate C-reactive protein (CRP) levels over time • Number of subjects with study drug related bleeding at any time point
Results of the bacterial and fungal sputum load analysis were highly variable, and due to limitations of the sampling and testing technique, must be interpreted with caution. Microbiology results were recorded from Day 1 to end of follow-up, for all samples taken during the study. In order for NO therapy to be efficient, a minimal exposure of the microbial population to NO for the whole duration of the study is required. […] Thus, data was analyzed only for cultures with positive results on Day 1. Furthermore, samples from 2 subjects (SO-01 and SO-02) were not analyzed by the central laboratory. A summary of the bacterial and fungal sputum results at Day 1 and Day 9 is presented according to subject in Table 18.

[4] = tested on: human subjects diagnosed with cystic fibrosis; experiment: Example 4: lung function indices by spirometry; format: in vivo
Protocol: as §2, §3
The Signed rank test for two means was applied for analyzing changes from baseline in continuous parameters: • FEV1% • Specific bacterial colonization (i.e., S. aureus, P. aeruginosa)

[5] = Follow-up 2 (2 weeks after Day 10), n=9

## [N]=O [NO, nitric oxide]
[1]; 9 subjects, 10 days of treatment
  Average MetHb levels post treatment (mean±SD): 2.4%
[1]; all 9 subjects
  Oxygen saturation post treatment: more than 92%
[1]; all subjects
  MetHb levels throughout the trial (safety limit): < 5%
[1]; during the study
  Changes in vital signs: no clinically significant changes in vital signs
  Serious adverse events: No serious adverse events
[2]; one patient, returned to initial levels after 2 weeks
  FEV1 reduction: 11%
[2]; two of 9 subjects
  changes in FEV1 values: no significant changes
[3]; Subject SC-03
  S. aureus (MSSA), % change from Day 1 to Day 9: −100.0%
[3]; Subject SC-03, Day 1
  S. aureus (MSSA) sputum load: 29.5 CFU/mL × 10^−4
[3]; Subject SC-03, Day 9
  S. aureus (MSSA) sputum load: 0 CFU/mL × 10^−4
[3]; Subject SO03
  S. aureus (MSSA), % change from Day 1 to Day 9: +27.6%
[3]; Subject SO03, Day 1
  S. aureus (MSSA) sputum load: 67.0 CFU/mL × 10^−4
[3]; Subject SO03, Day 9
  S. aureus (MSSA) sputum load: 85.5 CFU/mL × 10^−4
[4]; Day 1, n=9
  FEF 25-75% Absolute, Mean: 30.000%
  FEF 25-75% Absolute, Median: 27.000%
  FEF 25-75 Absolute, Mean: 1.151 L/s
  FEF 25-75 Absolute, Median: 1.090 L/s
  FEV1/FVC, Mean: 68.778%
  FEV1/FVC, Median: 69.000%
  FEV1 Absolute, Mean: 1.871 L
  FEV1 Absolute, Median: 1.700 L
  FEV1 Predicted, Mean: 62.222%
  FEV1 Predicted, Median: 64.000%
  FVC Absolute, Mean: 2.756 L
  FVC Absolute, Median: 2.360 L
  FVC Predicted, Mean: 79.889%
  FVC Predicted, Median: 90.000%
[4]; Day 10, n=9
  FEF 25-75% Absolute, Mean: 28.111%
  FEF 25-75% Absolute, Median: 22.000%
  FEF 25-75 Absolute, Mean: 1.090 L/s
  FEF 25-75 Absolute, Median: 0.880 L/s
  FEV1/FVC, Mean: 65.111%
  FEV1/FVC, Median: 66.000%
  FEV1 Absolute, Mean: 1.833 L
  FEV1 Absolute, Median: 1.610 L
  FEV1 Predicted, Mean: 60.444%
  FEV1 Predicted, Median: 59.000%
  FVC Absolute, Mean: 2.759 L
  FVC Absolute, Median: 2.340 L
  FVC Predicted, Mean: 79.556%
  FVC Predicted, Median: 84.000%
[4]; [5]
  FEF 25-75% Absolute, Mean: 29.667%
  FEF 25-75% Absolute, Median: 23.000%
  FEF 25-75 Absolute, Mean: 1.118 L/s
  FEF 25-75 Absolute, Median: 0.910 L/s
  FEV1/FVC, Mean: 66.000%
  FEV1/FVC, Median: 65.000%
  FEV1 Absolute, Mean: 1.852 L
  FEV1 Absolute, Median: 1.630 L
  FEV1 Predicted, Mean: 62.889%
  FEV1 Predicted, Median: 60.000%
  FVC Absolute, Mean: 2.786 L
  FVC Absolute, Median: 2.390 L
  FVC Predicted, Mean: 81.889%
  FVC Predicted, Median: 85.000%
[4]; from Day 1 to Day 10, N=9, p=0.992
  mean (SD) FEV1 change: −0.11%
[4]; throughout the study
  Lung function indices over time: no clinically significant changes

From patent publication US20170239289A1, “TREATMENT OF INFLAMMATION, RESPIRATORY TRACT INFECTIONS AND CYSTIC FIBROSIS” (Advanced Inhalation Therapies (AIT) Ltd., priority 2014, published 2017)
